In patent EP4122499A1, “FIBROBLAST ACTIVATION PROTEIN INHIBITORS AND USE THEREOF” (3B Pharmaceuticals GmbH, priority 2021, dated 2023):

What was measured:
HEK-FAP cells = biological target: T1, HEK-FAP cells (Homo sapiens, UniProt Q12884); test: LigandTracer assay with 111In-labeled compounds; type: binding; details: 111In-labeled compound
T1 construct: expressed in transfected cells; host or cells: HEK293
T1 sequence (Q12884 1-760): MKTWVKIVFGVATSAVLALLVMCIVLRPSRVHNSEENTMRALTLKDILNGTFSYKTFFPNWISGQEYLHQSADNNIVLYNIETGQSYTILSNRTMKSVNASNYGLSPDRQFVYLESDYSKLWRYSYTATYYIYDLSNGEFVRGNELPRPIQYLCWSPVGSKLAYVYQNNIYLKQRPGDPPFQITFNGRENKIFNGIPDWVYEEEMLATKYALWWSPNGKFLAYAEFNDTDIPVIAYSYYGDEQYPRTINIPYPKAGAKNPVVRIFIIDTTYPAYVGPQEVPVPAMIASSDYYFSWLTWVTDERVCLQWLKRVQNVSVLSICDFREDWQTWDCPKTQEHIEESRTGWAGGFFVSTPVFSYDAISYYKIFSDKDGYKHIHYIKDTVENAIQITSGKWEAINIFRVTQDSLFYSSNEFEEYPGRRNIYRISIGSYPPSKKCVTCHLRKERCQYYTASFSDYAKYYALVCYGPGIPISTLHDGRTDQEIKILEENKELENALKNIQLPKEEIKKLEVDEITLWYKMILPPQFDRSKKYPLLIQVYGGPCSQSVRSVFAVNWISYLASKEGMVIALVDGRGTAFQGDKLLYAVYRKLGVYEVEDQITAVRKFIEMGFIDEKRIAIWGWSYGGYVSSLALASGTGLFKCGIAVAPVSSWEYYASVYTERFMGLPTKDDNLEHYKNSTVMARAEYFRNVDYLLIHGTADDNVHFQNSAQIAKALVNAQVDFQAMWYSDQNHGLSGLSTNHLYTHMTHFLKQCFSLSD
Protocol: HEK293 cells (human embryonic kidney cells) were engineered to express the human FAP. […] Cell concentrations were adjusted to 3 x 10^5 mL^-1, and 3.000 µL of the suspension was dispensed into a poly-lysine-coated, clear cell dish (10cm). Approximately 24 hours after re-seeding, the medium was replaced by assay medium (Ham's medium with 20 mM HEPES) containing 1 % FCS. The dish was placed in the LigandTracer® device and a baseline measurement was obtained using the LigandTracer® Control software (version 2.4). […] To determine the dissociation rate (kd) the cells were washed and subsequently incubated with fresh assay medium for several hours. […] Table 14 Results of the LigandTracer® assay

Recombinant human DPP4 = biological target: T2, Recombinant human DPP4 (Homo sapiens, UniProt P27487); test: DPP4 protease activity assay; type: biochemical; details: 20 µM GP-AMC substrate
T2 construct: purchased R&D systems 9168-SE
Protocol: (§1) The PREP activity assay was performed using the FACS buffer (PBS including 1% FBS, Sigma-Aldrich, Cat# D8537). […] The DPP4 activity assay was performed in DPP assay buffer (25 mM Tris, pH 8.0).
(§2) Four parameter logistic (4PL) curve fitting and pIC50 calculations were performed using ActivityBase software.

[1] = biological target: T3, FAP-expressing human WI-38 fibroblasts (Homo sapiens, UniProt Q12884); test: Competitive FACS binding assay (displacement of Cy5-labeled FAP inhibitor 3BP-2935); details: 3 nM Cy5-labeled 3BP-2935, 4°C, 1 hour
T3 construct: FAP-expressing human WI-38 fibroblasts (ECACC 90020107) were cultured in EMEM; host or cells: WI-38 human fibroblasts
T3 sequence (Q12884 1-760): T1 sequence (Q12884 1-760)
Protocol: In order to determine binding of compounds according to the present invention to FAP-expressing cells, a competitive FACS binding assay was established.
Cells were diluted in FACS buffer to a final concentration of 100.000 cells per ml and 200 µl of the cell suspension are transferred to a u-shaped non-binding 96-well plate (Greiner).
Cell were washed twice with FACS buffer (see above) and resuspended in 200 µl FACS buffer. Cells were analyzed in an Attune NxT flow cytometer (Thermo Fisher Scientific). Median fluorescence intensities (Cy5 channel) was calculated by Attune NxT software and plotted against test compound concentrations. Four parameter logistic (4PL) curve fitting and pIC50 calculations were performed using ActivityBase software.

recombinant human PREP = biological target: T4, recombinant human PREP (Homo sapiens, UniProt P48147); test: PREP protease activity assay; type: biochemical; details: 50 µM Z-GP-AMC substrate
T4 construct: purchased R&D systems 4308-SE
T4 sequence (P48147 1-710): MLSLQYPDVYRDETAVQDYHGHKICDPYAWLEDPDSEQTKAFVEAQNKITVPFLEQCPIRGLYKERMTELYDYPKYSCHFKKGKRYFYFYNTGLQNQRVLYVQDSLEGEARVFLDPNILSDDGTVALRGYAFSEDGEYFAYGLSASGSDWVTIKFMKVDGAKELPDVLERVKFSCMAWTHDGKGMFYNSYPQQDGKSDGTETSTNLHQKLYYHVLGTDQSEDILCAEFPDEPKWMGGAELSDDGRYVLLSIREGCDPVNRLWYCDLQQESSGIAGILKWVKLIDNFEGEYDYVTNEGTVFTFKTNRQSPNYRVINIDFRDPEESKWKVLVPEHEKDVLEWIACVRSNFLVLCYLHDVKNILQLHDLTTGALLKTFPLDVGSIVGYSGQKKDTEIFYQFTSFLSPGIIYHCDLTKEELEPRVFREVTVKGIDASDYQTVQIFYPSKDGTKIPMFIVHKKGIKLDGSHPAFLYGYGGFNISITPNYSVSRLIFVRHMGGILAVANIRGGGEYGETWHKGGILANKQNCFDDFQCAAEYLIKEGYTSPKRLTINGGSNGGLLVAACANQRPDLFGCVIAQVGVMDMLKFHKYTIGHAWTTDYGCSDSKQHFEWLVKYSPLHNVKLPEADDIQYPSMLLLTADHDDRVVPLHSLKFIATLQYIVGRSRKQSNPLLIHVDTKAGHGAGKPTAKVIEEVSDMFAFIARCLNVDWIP
Protocol: as §1, §2

Recombinant mouse FAP = biological target: T5, Recombinant mouse FAP (Mus musculus, UniProt P97321); test: FRET-based FAP protease activity assay (mouse); type: biochemical; details: FRET-peptide substrate, 37°C
T5 construct: purchased R&D systems 8647-SE
T5 sequence (P97321 1-761): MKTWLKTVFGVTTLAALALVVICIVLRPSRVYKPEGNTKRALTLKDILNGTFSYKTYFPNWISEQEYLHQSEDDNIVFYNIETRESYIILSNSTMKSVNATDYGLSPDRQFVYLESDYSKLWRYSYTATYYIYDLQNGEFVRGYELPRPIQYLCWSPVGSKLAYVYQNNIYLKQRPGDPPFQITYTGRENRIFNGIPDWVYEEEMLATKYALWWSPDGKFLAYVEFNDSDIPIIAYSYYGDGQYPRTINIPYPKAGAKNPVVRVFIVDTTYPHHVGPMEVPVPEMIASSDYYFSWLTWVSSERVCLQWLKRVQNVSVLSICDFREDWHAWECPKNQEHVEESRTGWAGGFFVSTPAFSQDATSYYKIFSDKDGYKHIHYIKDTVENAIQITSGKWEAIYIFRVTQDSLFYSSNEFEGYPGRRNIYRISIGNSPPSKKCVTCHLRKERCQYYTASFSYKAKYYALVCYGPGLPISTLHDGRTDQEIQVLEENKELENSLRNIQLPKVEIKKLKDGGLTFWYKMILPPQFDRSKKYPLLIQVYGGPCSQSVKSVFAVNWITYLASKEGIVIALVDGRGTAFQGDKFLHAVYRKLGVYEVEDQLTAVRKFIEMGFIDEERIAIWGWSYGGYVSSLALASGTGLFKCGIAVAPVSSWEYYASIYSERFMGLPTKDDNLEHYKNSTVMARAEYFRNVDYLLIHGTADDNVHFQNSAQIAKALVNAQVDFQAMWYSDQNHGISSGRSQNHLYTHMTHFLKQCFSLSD
Protocol: (§3) In order to determine the inhibitory activity a FRET-based FAP protease activity assay was established.
25 µL of a 30 µM substrate solution, diluted in assay buffer, was added. […] Four parameter logistic (4PL) curve fitting and pIC50 calculations were performed using ActivityBase software.

Human recombinant FAP [2] = biological target: T6, Human recombinant FAP (Homo sapiens, UniProt Q12884); test: FRET-based FAP protease activity assay (human); type: biochemical; design: purchased R&D systems 3715-SE; details: FRET-peptide substrate, 37°C; for IC50: read-out: pIC50 (Activity) (converted)
T6 sequence (Q12884 1-760): T1 sequence (Q12884 1-760)
Protocol: as §3
25 µL of a 30 µM substrate solution, diluted in assay buffer, was added. […] Four parameter logistic (4PL) curve fitting and pIC50 calculations were performed using ActivityBase software (IDBS).

Human recombinant FAP [3] = biological target: T6, Human recombinant FAP; test: Surface plasmon resonance assay (Biacore T200, single cycle kinetics); type: binding; details: SPR, 25°C
Protocol: Surface plasmon resonance studies were performed using a Biacore™ T200 SPR system (Cytiva, formerly GE Healthcare). Briefly, polarized light is directed towards a gold-labeled sensor surface, and minimum intensity reflected light is detected. The angle of reflected light changes as molecules bind and dissociate. […] Test compounds are contacted with the loaded surface, and a real-time interaction profile with the FAP ligand is recorded in a sensorgram. In real-time, the association and dissociation of a binding interaction is measured, enabling calculation of association and dissociation rate constants and the corresponding affinity constants. Importantly, a background response is generated due to the difference in the refractive indices of the running and sample buffers, as well as unspecific binding of the test compounds to the flow cell surface. This background is measured and subtracted by running the sample on a control flow cell coated with the same density of capture antibody in the absence of immobilized FAP. Furthermore, baseline drift correction of the binding data is performed, which is caused by slow dissociation of the captured FAP from the immobilized antibody. This drift is measured by injecting running buffer through a flow cell with the antibody and FAP immobilized to the sensor surface.
Biacore™ CM5 sensor chips were used. […] A 150 µL aliquot was transferred into plastic vials and placed into the sample rack of the Biacore™ T200 instrument. Amine Coupling Kit Reagent solutions were transferred into plastic vials and placed into the sample rack: 90 µL of 0.4 M 1-ethyl-3-(3-dimethylaminopropyl)carbodiimide (EDC), and 90 µL of 0.1 M N-hydroxysuccinimide (NHS). A 130 µL aliquot of 1 M ethanolamine-HCl, pH 8.5, was transferred into plastic vials and placed into the sample rack. The Biacore™ liquid system was set-up as follows: Separate bottles containing distilled water (1 L), Running Buffer (500 mL), as well as an empty bottle for waste were placed onto the buffer tray. A preinstalled program for immobilization was used, with an immobilization level of 7000 RU. Immobilization was performed at 25°C. The immobilization procedure of anti-FAP antibodies was performed, as described in the Table 5. Table 5: Immobilization protocol for anti-FAP antibodies used on the CM5 sensor chip.
Human recombinant FAP was diluted in Running Buffer to a final concentration of 20 µg/mL. A 100 µL aliquot of human FAP-Working-Solution was transferred into plastic vials and placed into a sample rack. A 0.5 mM Compound-Stock-Solution was prepared by dissolving each compound in DMSO. For each test compound, Compound-Stock-Solutions were diluted in Running Buffer (HBST) at 500 nM and further diluted with HBST-DMSO Buffer (0.1% DMSO). SPR binding analyses for binary complexes were performed in SCK mode at 25°C. Following three SCK measurements, a baseline drift was assessed by injecting running buffer through a flow cell, with the antibody and FAP immobilized to the sensor surface. Table 6: Protocol for assessing the binding kinetics.
For each test compound, SPR raw data in the form of resonance units (RU) were plotted as sensorgrams using the Biacore™ T200 control software. The signal from the blank sensorgram was subtracted from that of the test compound sensorgram (blank corrected). The blank corrected sensorgram was corrected for baseline drift by subtracting the sensorgram of a SCK run without the test compound (running buffer only). The association rate (kon), dissociation rate (koff), dissociation constant (KD), and t1/2 were calculated from Blank-normalized SPR data using the 1:1 Langmuir binding model from the Biacore™ T200 evaluation software. Raw data and fit results were imported as text files in IDBS. The pKD value (negative decadic logarithm of dissociation constant) was calculated in the IDBS excel template.

T2 sequence (P27487 whole entry): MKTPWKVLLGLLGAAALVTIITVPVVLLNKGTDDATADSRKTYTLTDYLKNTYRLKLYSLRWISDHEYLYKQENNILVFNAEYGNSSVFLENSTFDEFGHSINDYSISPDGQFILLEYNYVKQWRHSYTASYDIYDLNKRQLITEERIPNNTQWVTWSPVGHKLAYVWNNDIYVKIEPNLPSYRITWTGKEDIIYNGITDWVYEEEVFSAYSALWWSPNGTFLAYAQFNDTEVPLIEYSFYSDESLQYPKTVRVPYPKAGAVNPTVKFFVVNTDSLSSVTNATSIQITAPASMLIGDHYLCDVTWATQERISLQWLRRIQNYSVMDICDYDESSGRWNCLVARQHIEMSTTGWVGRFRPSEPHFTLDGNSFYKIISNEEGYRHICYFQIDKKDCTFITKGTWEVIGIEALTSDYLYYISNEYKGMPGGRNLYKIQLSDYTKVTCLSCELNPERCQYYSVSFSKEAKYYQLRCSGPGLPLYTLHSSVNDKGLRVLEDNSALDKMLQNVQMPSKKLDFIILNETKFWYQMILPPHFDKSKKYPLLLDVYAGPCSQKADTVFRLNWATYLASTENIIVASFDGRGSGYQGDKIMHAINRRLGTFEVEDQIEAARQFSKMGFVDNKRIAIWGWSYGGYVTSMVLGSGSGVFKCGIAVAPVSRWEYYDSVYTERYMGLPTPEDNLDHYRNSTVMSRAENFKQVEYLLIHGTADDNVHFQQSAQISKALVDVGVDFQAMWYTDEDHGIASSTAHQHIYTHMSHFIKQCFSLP

Compound: O=C(O)CN1CCN(CC(=O)O)CCN(CC(=O)NCCCS(=O)(=O)c2ccc(-c3ccc4nccc(C(=O)NCC(=O)N5CCC[C@H]5C(=O)c5nc6ccccc6o5)c4c3)cc2)CCN(CC(=O)O)CC1 [Compound 3BP-3581, (S)-2,2',2"-(10-(2-(3-(4-(4-(2-(2-(benzo[d]oxazole-2-carbonyl)pyrrolidin-1-yl)-2-oxoethylcarbamoyl)quinolin-6-yl)phenylsulfonyl)propylamino)-2-oxoethyl)-1,4,7,10-tetraazacyclododecane-1,4,7-triyl)triacetic acid]
- HL (HEK-FAP cells): 345 ± 218 min

Compound: N#C[C@@H]1CC(F)(F)CN1C(=O)CNC(=O)c1ccnc2ccc(OCCCN3CCN(C(=O)CN4CCN(CC(=O)O)CCN(CC(=O)O)CCN(CC(=O)O)CC4)CC3)cc12 [Compound 3BP-2929, reference compound]
- HL (HEK-FAP cells): 276 ± 142 min

Compound: N#C[C@@H]1CCCN1C(=O)CNC(=O)c1cc[n+]([O-])c2ccccc12
- pIC50 (DPP4) (Recombinant human DPP4): <6
- pIC50 (FACS) [1]: 7.1
- pIC50 (PREP) (recombinant human PREP): 6.3
- pIC50 (mouseFAP) (Recombinant mouse FAP): 7.5
- pIC50 (Activity) (Human recombinant FAP [2]): 7.6

Compound: O=C(O)CN1CCN(CC(=O)O)CCN(CC(=O)N2CCN(CCNC(=O)c3ccc(-c4ccc5nccc(C(=O)NCC(=O)N6C[C@@H](F)C[C@H]6C(=O)c6nc7ccccc7o6)c5c4)cc3)CC2)CCN(CC(=O)O)CC1 [Compound 3BP-4810]
- HL (HEK-FAP cells): 38 ± 4 min
- pKD (HEK-FAP cells): 8.5 ± 0.1

Compound: Cc1nc(C(=O)[C@@H]2CCCN2C(=O)CNC(=O)c2ccnc3ccccc23)no1
- IC50 [1]: 251 nM
- IC50 (recombinant human PREP): 1.26 nM
- IC50 (Recombinant mouse FAP; read-out: pIC50 (mouseFAP) (converted)): 126 nM
- IC50 (Human recombinant FAP [2]): 79.4 nM

Compound: CS(=O)(=O)c1ccc(-c2ccc3c(C(=O)NCC(=O)N4CC(F)(F)C[C@H]4C#N)ccnc3c2)cc1
- pIC50 (DPP4) (Recombinant human DPP4): <6
- pIC50 (FACS) [1]: 8.5
- pIC50 (PREP) (recombinant human PREP): <6
- pKD (Biacore) (Human recombinant FAP [3]; 1:1 Langmuir binding model): 10
- HL [min] (Biacore) (Human recombinant FAP [3]; half-life): 37 min
- pIC50 (Activity) (Human recombinant FAP [2]): 9.1

Compound: N#C[C@@H]1CCCN1C(=O)CNC(=O)c1ccnc2cc(-c3cccc(C(=O)O)c3)ccc12
- IC50 (Recombinant human DPP4; read-out: pIC50 (DPP4) (converted)): > 1000 nM
- IC50 [1]: 2.51 nM
- IC50 (recombinant human PREP): > 1000 nM
- IC50 (Human recombinant FAP [2]): 1.58 nM
